From patent publication US5663172A, “Preventive agent for platelet aggregation” (Nippon Soda Co., Ltd., priority 1992, dated 1997)
Read-outs that look alike come from different tables or passages of the source.

Tests used:
[1] = test system: platelet aggregation (rabbit platelet rich plasma); test: Preventive effect on platelet aggregation in vitro (aggregometer; rabbit platelet rich plasma; ADP or collagen induced); assay type: cell-based, rabbits; conditions: for EC50: Oryctolagus cuniculus, Platelet, rabbit PRP
Procedure: Preventive Effect on Platelet Aggregation The preventive effect on platelet aggregation of the compounds and the complexes of the present invention was evaluated in vitro based on the preventive effect on the platelet aggregation induced by adenosine diphosphate (ADP) and collagen, which is determined by using an aggregometer, Hematracer PAT-606 produced by Nicho Bioscience Co., Ltd. Blood collected from rabbits containing 0.38% citric acid was centrifuged at 1100 rpm for 15 min. to obtain platelet rich plasm (PRP). The PRP obtained was then centrifuged at 3500 rpm for 10 min., and the supernatant obtained was provided as platelet poor plasma (PPP). PRP was diluted with PPP to adjust the concentration of platelets in PRP to a range of from 2×10^8 /ml to 5×10^8 ml. .left brkt-top.Either ADP at the final concentration of 10 μM or collagen at the final concentration of 20 μg/ml, which was prepared with SKF buffer solution (Collagen reagent Horm, Hormon Chemie) was used for the induction of platelet aggregation. .right brkt-bot. Test compound was dissolved into dimethyl sulfoxide (DMSO), then 0.5 ml of PRP prepared as described above was added to 0.5 μl of the solution, then mixed for about 3 min. Then, 0.2 ml portion was taken out of the mixture, and either ADP solution or collagen solution in an amount of 22 μl was added thereto to proceed to the measurement of platelet aggregation for 10 min. by using an aggregometer. The preventive effect on platelet aggregation was determined in the prevention rate (%) in respect to the aggregation rate in the check plot. The rate of prevention onto platelet aggregation was calculated according to the following equation. Platelet Aggregation Prevention Rate (%)=(Maximum Aggregation Rate(%) of Platelet when only DMSO is added-Maximum Aggregation Rate(%) of Platelet when Test Compound and DMSO are added).div.Maximum Aggregation Rate(%) of Platelet when only DMSO is added Based on the dose-response curve obtained according to the equation described above, EC50, a dose attaining 50% prevention of platelet aggregation, was determined.

[2] = test system: Mice; test: Preventive effect on thrombus-causing death (collagen + epinephylline i.v. in mice); assay type: in vivo; conditions: for ED50: Mus musculus, po, 0.5 h, read-out: ED50 for preventing Thrombus-causing Death
Procedure: Preventive Effect on Thrombus-causing Death
Mice in a state without feeding for a night were orally administrated with a test compound, and then injected intravenously with collagen in an amount of 400 μg/Kg and epinephylline in an amount of 50 μg/Kg through their tail at a fixed speed in accordance with the method of DiMinno and Silver (DiMinno, G. and Silver, M. J., J. Pharmacol. Exp. Thor., 225, 57-60, 1983). After 30 min., the mice were checked to determine their survival rate and to calculate EC50, a dose attaining 50% prevention of the death of the mice. The collagen and epinephylline were used in a form of a mixed solution prepared with SKF buffer solution and saline, respectively. Test compounds were administrated to mice after preparing each suspensions of the compounds in 1% aqueous solution of gum arabic.

[3] = biological target: T1, Cyclic guanosine monophosphate inhibiting-type cyclic adenosine monophosphate phosphodiesterase (cAMP-PDE) (Canis lupus familiaris, UniProt A0A8I3NYE0); test: Inhibitory effect on phosphodiesterase (cGMP inhibiting-type cAMP-PDE from canine platelets); assay type: biochemical; conditions: for IC50: canine platelets, 1 μM [3H]-cAMP
T1 construct: derived from canine platelets was prepared according to the method of Thompson et. al; from tissue; host or cells: canine platelets (DEAE-cellulose fraction)
T1 sequence (A0A8I3NYE0 1-1135): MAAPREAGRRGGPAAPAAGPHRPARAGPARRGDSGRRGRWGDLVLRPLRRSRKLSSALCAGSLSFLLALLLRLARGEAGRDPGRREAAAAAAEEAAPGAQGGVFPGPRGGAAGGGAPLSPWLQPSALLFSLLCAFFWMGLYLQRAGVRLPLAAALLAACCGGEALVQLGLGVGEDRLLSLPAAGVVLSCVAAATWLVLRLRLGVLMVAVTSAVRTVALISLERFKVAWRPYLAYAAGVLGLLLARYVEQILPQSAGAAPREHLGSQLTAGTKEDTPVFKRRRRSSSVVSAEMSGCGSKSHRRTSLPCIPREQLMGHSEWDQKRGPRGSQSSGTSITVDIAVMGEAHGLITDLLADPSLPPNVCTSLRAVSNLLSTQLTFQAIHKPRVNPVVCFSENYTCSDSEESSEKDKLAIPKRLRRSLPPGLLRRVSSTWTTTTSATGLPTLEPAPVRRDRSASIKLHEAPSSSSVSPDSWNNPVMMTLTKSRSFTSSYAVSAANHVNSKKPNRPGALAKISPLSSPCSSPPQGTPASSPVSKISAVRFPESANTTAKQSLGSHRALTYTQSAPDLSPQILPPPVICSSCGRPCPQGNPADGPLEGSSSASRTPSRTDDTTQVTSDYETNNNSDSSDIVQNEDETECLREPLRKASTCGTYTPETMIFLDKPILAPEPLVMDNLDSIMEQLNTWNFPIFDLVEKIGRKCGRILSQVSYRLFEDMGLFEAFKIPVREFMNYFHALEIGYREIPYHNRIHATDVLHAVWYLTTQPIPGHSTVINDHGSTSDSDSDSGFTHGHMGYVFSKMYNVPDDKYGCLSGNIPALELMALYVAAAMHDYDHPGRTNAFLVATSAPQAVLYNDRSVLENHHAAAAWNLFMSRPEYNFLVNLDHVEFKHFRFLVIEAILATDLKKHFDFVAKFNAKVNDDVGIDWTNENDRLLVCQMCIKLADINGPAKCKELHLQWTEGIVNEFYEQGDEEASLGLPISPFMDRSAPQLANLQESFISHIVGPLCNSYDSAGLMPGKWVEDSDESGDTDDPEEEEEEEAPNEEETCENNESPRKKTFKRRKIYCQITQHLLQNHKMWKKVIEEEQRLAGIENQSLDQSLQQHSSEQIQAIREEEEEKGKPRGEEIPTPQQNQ

[4] = test system: Left Cardiac Ventricle (dp/dt max), heart rate, blood pressure; test: Cardiotonic effect in anesthetized Beagle dogs (dp/dt max, heart rate, blood pressure); assay type: in vivo; conditions: for ED50: Canis lupus familiaris, cumulative 0.001 to 0.3 mg/0.1 ml/Kg, read-out: ED50 for dp/dt max in Left Cardiac Ventricle (dose attaining 50% increase)
Procedure: Male and female Beagle dogs in a weight range of from 10 to 15 Kg were anesthetized to provide them for the test. The dogs were anesthetized by intravenous injection with sodium pentobarbital at a dose of […], and the anesthetized condition was maintained by subsequent intravenous injection with sodium pentobarbital at a dose of 4 mg/Kg/hr. A cannula for drip infusion either of physiological saline solution or anesthetic injection was inserted into a femoral vein, and a cannula for measuring arterial blood pressure was inserted into a femoral artery via a pressure transducer. Heart rate was recorded by conducting R-wave of the electrocardiogram (ECG) to a heart beat counter. Secondary induction from electrocardiogram was measured via a bioelectricity-adapted amplifier. Internal pressure of left cardiac ventricle was measured by inserting a catheter-type pressure transducer from a left carotid into left cardiac ventricle. Differential values by time of the internal pressure in left cardiac ventricle (dp/dt max) were measured by conducting the internal pressure in left cardiac ventricle to a derivative amplifier. The test compound was cummulatively administrated at a rate of from 0.001 to 0.3 mg/0.1 ml/Kg though a cannula inserted into a femoral vein. Based on a dose-response curve obtained, ED50, a dose attaining 50% increase of the dp/dt max in left cardiac ventricle, was determined.

[5] = test system: Left Cardiac Ventricle (dp/dt max), heart rate, blood pressure; test: as above; assay type: in vivo; conditions: i.v. at 0.3 mg/kg (footnote *)
[6] = ADP at final concentration 10 μM, read-out: EC50 for Platelet Aggregation Prevention, ADP
[7] = collagen at final concentration 20 μg/ml, read-out: EC50 for Platelet Aggregation Prevention, Collagen
[8] = i.v., anesthetized Beagle dogs, dose not stated

SMILES	EC50 [1, 6]	EC50 [1, 7]	Effect in Test Example 1 (platelet aggregation) compared with compound No. 2 ([1]; in words)	ED50 [2]	Effect in Test Example 2 (thrombus-causing death) compared with compound No. 2 ([2]; in words)	IC50 [3]	Effect in Test Example 3 (phosphodiesterase) compared with compound No. 2 ([3]; in words)	ED50 ([4]; iv, anesthetized Beagle dogs)	% Change in Blood pressure [4, 8]	% Change in Heart Rate [4, 8]	Effect in Test Example 4 (cardiotonic effect) compared with compound No. 2 ([4]; in words)	% Change in Blood pressure [5]	% Change in Heart Rate [5]	% Change in dp/dt max in Left Cardiac Ventricle [5]	% Change in Blood pressure ([4]; dog, in vivo, iv)	% Change in Heart Rate ([4]; dog, in vivo, iv)
CCCC1=C(Nc2ccc(C3=NNC(=O)CC3C)cc2)CCCC1=O (stereo not drawn) [Compound No. 2, 4,5-dihydro-5-methyl-6-[4-[(2-propyl-3-oxo-1-cyclohexenyl)amino]phenyl]-3(2H)-pyridazinone]	4.5 µM	3.6 µM	as much as the effects given by the compound No. 2	1.7 mg/kg	as much as the effects given by the compound No. 2	0.088 µM	as much as the effects given by the compound No. 2	0.052 mg/kg	-10.0%	9.8%	as much as the effects given by the compound No. 2					
CCCC1=C(Nc2ccc(C3=NNC(=O)CC3)cc2)CCC1=O [compound 3]	22.8 µM	12.9 µM		6.8 mg/kg		0.37 µM		0.1 mg/kg	-10.5%	7.5%						
CCCC1=C(Nc2ccc(C3=NNC(=O)CC3)cc2)CCCC1=O [Compound No. 1, 4,5-dihydro-6-[4-[(2-propyl-3-oxo-1-cyclohexenyl)amino]phenyl]-3(2H)-pyridazine]	29.8 µM	9.3 µM		5 mg/kg		0.43 µM		> 0.3 mg/kg				-8.6%	5.2%	32%		
O=C1CCc2cc(OCCCCc3nnnn3C3CCCCC3)ccc2N1 [Cilostazol, reference compound]	10.2 µM	4.3 µM		300 mg/kg		0.6 µM		0.2 mg/kg							-2.1%	15%
